Source: ChEMBL document CHEMBL5154648, “Antitumor activity of novel POLA1-HDAC11 dual inhibitors” (Eur J Med Chem, 2022)
Active and inactive are the calls of the source. No cut-off for these calls is given here.

Key:
MM473 [1] = assay: Induction of cell cycle arrest in human MM473-Luc cells assessed as accumulation of cells at sub-G1 phase at 1.2 uM after 72 hrs by flow cytometry (reference value: 1.3%); type: functional
[2] = target: T1, Histone deacetylase 11 (Homo sapiens) (UniProt Q96DB2); assay: Inhibition of HDAC11 in human MM473 cells at 0.1 to 0.4 uM assessed as induction of p53 acetylation and measured by Western blot analysis; type: cell-based; details: dose 0.1-0.4 µM
T1 sequence (whole entry): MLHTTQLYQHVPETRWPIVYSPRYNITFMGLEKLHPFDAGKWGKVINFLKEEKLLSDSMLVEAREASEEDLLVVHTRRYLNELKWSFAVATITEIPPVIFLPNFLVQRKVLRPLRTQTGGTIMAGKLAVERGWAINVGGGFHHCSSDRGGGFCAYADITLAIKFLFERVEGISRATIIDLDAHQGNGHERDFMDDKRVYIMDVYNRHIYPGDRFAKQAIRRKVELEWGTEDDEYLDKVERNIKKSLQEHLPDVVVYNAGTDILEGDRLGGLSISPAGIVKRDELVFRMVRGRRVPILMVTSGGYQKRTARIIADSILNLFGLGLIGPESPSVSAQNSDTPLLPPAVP

MM473 [3] = assay: Induction of cell cycle arrest in human MM473-Luc cells assessed as accumulation of cells at G2/M phase at 1.2 uM after 72 hrs by flow cytometry (reference value: 11.7%); type: functional
[4] = Induction of cell cycle arrest in human H460-R9A cells assessed as accumulation of cells at G0/1 phase at 2.8 uM after 72 hrs by flow cytometry (reference value: 50.1%); type: functional
NCI-H460 [5] = assay: Induction of cell cycle arrest in human NCI-H460 cells assessed as accumulation of cells at S phase at 0.25 uM after 72 hrs by flow cytometry (reference value: 32.1%); type: functional
[6] = Antitumor activity against human H460-R9A cells xenografted in mouse assessed as tumor growth inhibition at 50 mg/kg, po qd administered 5 times a week for 3 to 4 weeks in combination with cisplatin at 4 mg/kg, iv administered every 7 days for 4 weeks; type: functional; details: time 3-4 weeks, read-out: TGI
MM473 [7] = assay: Induction of cell cycle arrest in human MM473-Luc cells assessed as accumulation of cells at G0/1 phase at 1.2 uM after 72 hrs by flow cytometry (reference value: 74.7%); type: functional
NCI-H460 [8] = assay: Induction of cell cycle arrest in human NCI-H460 cells assessed as accumulation of cells at G0/1 phase at 0.25 uM after 72 hrs by flow cytometry (reference value: 46.8%); type: functional
[9] = Toxicity in mouse xenografted with human H460-R9A cells assessed as body weight loss at 50 mg/kg, po qd administered 5 times a week for 3 to 4 weeks in combination with cisplatin at 4 mg/kg, iv administered every 7 days for 4 weeks; type: organism-based; details: in vivo, time 3-4 weeks
MM473 [10] = assay: Antitumor activity against human MM473 cells xenografted in mouse assessed as tumor growth inhibition at 50 mg/kg, po bid administered 5 times a week for 3 weeks; type: functional; details: MM473, 504 h, read-out: TGI
[11] = Induction of cell cycle arrest in human H460-R9A cells assessed as accumulation of cells at sub-G1 phase at 2.2 uM after 72 hrs by flow cytometry (reference value: 1.5%); type: functional
NCI-H460 [12] = assay: Induction of cell cycle arrest in human NCI-H460 cells assessed as accumulation of cells at G2/M phase at 0.12 uM after 72 hrs by flow cytometry (reference value: 21.1%); type: functional
NCI-H460 [13] = assay: Antitumor activity against human NCI-H460 cells xenografted in mouse assessed as tumor growth inhibition at 20 mg/kg, po qd administered […] for 3 to 4 weeks; type: functional; details: time 3-4 weeks, read-out: TGI
[14] = target: T1, Histone deacetylase 11 (Homo sapiens); assay: Inhibition of HDAC11 in human A2780 cells at 0.1 to 0.4 uM assessed as increase in p21 level and measured by Western blot analysis; type: cell-based; details: dose 0.1-0.4 µM
NCI-H460 [15] = assay: Down-regulation of POLA1 mRNA expression in human NCI-H460 cells at 0.26 uM measured by qRT-PCR assay; type: functional, cell-based
[16] = target: T2, Protein deacetylase HDAC6 (Homo sapiens) (UniProt Q9UBN7); assay: Inhibition of HDAC6 in human NCI-H460 cells at high-dose assessed as increase in alpha-tubulin acetylation measured by Western blot analysis; type: cell-based
T2 sequence (whole entry): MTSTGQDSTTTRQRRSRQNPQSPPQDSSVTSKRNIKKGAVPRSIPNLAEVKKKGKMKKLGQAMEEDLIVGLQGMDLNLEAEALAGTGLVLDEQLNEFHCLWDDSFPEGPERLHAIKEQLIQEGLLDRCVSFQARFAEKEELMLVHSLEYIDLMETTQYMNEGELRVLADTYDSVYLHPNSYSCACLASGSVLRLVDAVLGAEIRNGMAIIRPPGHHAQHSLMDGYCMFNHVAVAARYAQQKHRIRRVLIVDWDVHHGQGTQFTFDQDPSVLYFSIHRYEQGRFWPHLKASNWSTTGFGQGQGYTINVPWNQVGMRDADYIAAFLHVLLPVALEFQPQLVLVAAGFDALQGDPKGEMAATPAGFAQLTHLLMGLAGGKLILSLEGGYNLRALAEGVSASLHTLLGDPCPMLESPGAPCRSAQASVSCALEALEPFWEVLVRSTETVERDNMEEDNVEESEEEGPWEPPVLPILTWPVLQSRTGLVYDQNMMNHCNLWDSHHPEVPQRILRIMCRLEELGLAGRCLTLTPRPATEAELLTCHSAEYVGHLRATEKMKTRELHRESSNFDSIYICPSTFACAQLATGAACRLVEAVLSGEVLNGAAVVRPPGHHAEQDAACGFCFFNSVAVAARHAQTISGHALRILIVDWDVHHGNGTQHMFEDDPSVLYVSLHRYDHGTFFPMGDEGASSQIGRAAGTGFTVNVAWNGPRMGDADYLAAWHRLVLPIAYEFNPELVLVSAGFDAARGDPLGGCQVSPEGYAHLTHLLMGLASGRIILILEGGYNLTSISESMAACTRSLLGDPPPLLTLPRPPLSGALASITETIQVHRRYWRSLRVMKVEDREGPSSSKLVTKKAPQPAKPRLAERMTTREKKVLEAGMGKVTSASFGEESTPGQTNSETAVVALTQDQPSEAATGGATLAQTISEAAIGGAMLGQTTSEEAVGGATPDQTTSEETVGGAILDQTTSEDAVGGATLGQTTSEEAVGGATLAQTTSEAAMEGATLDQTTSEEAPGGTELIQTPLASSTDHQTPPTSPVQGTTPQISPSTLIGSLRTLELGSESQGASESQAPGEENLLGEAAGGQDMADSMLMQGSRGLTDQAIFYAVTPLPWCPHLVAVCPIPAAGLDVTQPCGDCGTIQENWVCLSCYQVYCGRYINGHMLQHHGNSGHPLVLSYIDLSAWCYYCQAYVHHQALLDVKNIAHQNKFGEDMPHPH

NCI-H460 [17] = assay: Induction of cell cycle arrest in human NCI-H460 cells assessed as accumulation of cells at G0/1 phase at 0.26 uM after 72 hrs by flow cytometry (reference value: 46.8%); type: functional

With `O=C(O)C=Cc1ccc(-c2ccc(OCC(=O)NO)c(C34CC5CC(CC(C5)C3)C4)c2)cc1` the Activity (MM473 [1]) was 39.7%, the inhibition [2] was “Active” and the Activity (MM473 [3]) was 14.1%. For the same compound, the Activity [4] was 49.7%, the Activity (NCI-H460 [5]) was 80.9% and the inhibition in vivo at 50 mg/kg [6] was 78%. The Activity (MM473 [7]) was 23%, the Activity (NCI-H460 [8]) was 16.3% and the Activity [9] was 0%. It also gave an inhibition in vivo at 50 mg/kg (MM473 [10]) of 77%.

Compound `O=C(O)C=Cc1ccc(-c2ccc(O)c(C34CC5CC(CC(C5)C3)C4)c2)cc1` has an Activity [11] of 26.7%, an Activity (NCI-H460 [12]) of 6.5% and an inhibition in vivo at 20 mg/kg (NCI-H460 [13]) of 64%.

In the case of `CC(Oc1ccc(-c2ccc(C=CC(=O)O)cc2)cc1C12CC3CC(CC(C3)C1)C2)C(=O)NO` (configuration not stated), the inhibition [14] is reported as “Active”, the Activity (NCI-H460 [15]) is reported as “Active” and the inhibition [16] is reported as “Active”. For the same compound, the Activity (NCI-H460 [17]) was 10.9%.
